# “Also recorded” adds a separate entry of the source. Like-named read-outs stand apart in the source and are kept apart here.
# Legend:
# HT-29 = test: Cytotoxicity by SRB assay in HT-29 cells
# Method: Cancer cell lines were obtained from ATCC unless otherwise noted. HT-29 and HCT-116 cells were cultured in Dulbecco's Modified Eagle Medium (DMEM, Thermo Fisher Scientific) with 10% fetal bovine serum (FBS, Thermo Fisher Scientific) and 1% antibiotic-antimycotic (Thermo Fisher Scientific).
# Briefly, CRC cells were seeded at a density of 5×10^3 cells/well in 96-well microtiter plates (100 μL/well), separated into two groups with or without GSH. After incubation for 24 hours, the culture medium was replaced by fresh medium (100 μL). […] After incubation, 10% cold trichloroacetic acid was gently added to each well and incubated at 4° C. for 1 h. The medium was removed, carefully washed with water, and dried at room temperature. […] The optical density (O.D.) was measured at 510 nm with Multi-Mode Microplate Reader (SpectraMax Paradigm, Beckman Coulter, U.S.). The fraction of cell survival was calculated as follows. Survival fraction=(OD treated−blank)/(OD control−blank). […] Each experiment was repeated three times.
# [1] = test system: CRC cell lines HCT-116 and HT-29; test: Cytotoxicity against CRC cell lines, summary over both lines (SRB assay); assay type: cell-based, human; conditions: for cytotoxicity against CRC cell lines, in words: HCT-116 and HT-29, with or without GSH; for IC50: read-out: IC50 in CRC cells
# Method: (§1) The fraction of cell survival was calculated as follows. Survival fraction=(OD treated−blank)/(OD control−blank). […] Each experiment was repeated three times.
# HCT-116 = test: Cytotoxicity by SRB assay in HCT-116 cells; assay type: cell-based, human
# Method: as §1
# [2] = Stability and drug release in GSH (RP-HPLC); assay type: in vitro ADME
# Method: […] After incubation for the indicated time, samples were centrifuged to collect the clear supernatant and stored at −30° C. until analysis. RP-HPLC injections were carried out at the specified conditions, and the area of peak was integrated for further calculation.
# [3] = Human plasma stability (RP-HPLC); assay type: in vitro ADME; conditions: 95% human plasma, 37° C.
# Method: To access human plasma stability, synthesized conjugates were prepared in 95% human plasma. […] The mixture was centrifuged at 13,000 rpm for 5 min. […] For compounds 30 and 31, they were dissolved in DMA and added GSH (11.2 mM or 11.2 μM) solution which was prepared in sodium acetate buffer (10 mM, pH 5.0) in the ratio of 50/40 (v/v, drug in DMA/GSH solution) for final GSH of 5 mM or 5 μM in pH 7.0, respectively. After incubation for the indicated time, samples were centrifuged to collect the clear supernatant and stored at −30° C. until analysis. RP-HPLC injections were carried out at the specified conditions, and the area of peak was integrated for further calculation.
# [4] = Body weight changes in the CRC mice model; assay type: in vivo, BALB/c mice; conditions: during treatment in CRC mice model
# Method: Azoxymethane (AOM)-induced murine CRC model was applied to model human CRC. BALB/c mice (6 weeks of age, male) were intraperitoneally (i.p.) injected once every two weeks with AOM (10 mg/kg body weight) or the PBS vehicle. Seven days after each AOM injection, 2% dextran sulfate sodium (DSS) was given in the drinking water for four days, followed by 3 days of regular water. This cycle was repeated three times. The mice were randomly divided into eight groups (n=5), on day 60 after the first AOM treatment. […] Irinotecan (20 mg/kg), compound 31 (20 mg/kg), and irinotecan+compound 17 (20 mg/kg of irinotecan and 14 mg/kg of compound 17) were injected i.p. q.o.d for two weeks. […] Tumor volumes and body weights were recorded at sacrifice. The tumors were counted under a dissecting microscope, and the area covered by tumors was measured by imaging software (AxioVision LE 4.8.2.0).
# [5] = test system: orthotopic CRC mice model; test: Orthotopic AOM/DSS-induced CRC mice model, tumor area; assay type: in vivo, BALB/c mice; conditions: SN-38 series; i.v. once every two days for two weeks; 40 mg/kg vs irinotecan 40 mg/kg
# Method: Azoxymethane (AOM)-induced murine CRC model was applied to model human CRC. BALB/c mice (6 weeks of age, male) were intraperitoneally (i.p.) injected once every two weeks with AOM (10 mg/kg body weight) or the PBS vehicle. Seven days after each AOM injection, 2% dextran sulfate sodium (DSS) was given in the drinking water for four days, followed by 3 days of regular water. This cycle was repeated three times. The mice were randomly divided into eight groups (n=5), on day 60 after the first AOM treatment. […] Tumor volumes and body weights were recorded at sacrifice. The tumors were counted under a dissecting microscope, and the area covered by tumors was measured by imaging software (AxioVision LE 4.8.2.0).
# [6] = Homo sapiens, HT-29, 48 h, read-out: IC50 HT-29 5 mM GSH
# [7] = Homo sapiens, HT-29, 48 h, read-out: IC50 HT-29 w/o GSH
# [8] = Homo sapiens, HCT-116, read-out: IC50 HCT-116 5 mM GSH, 48 h, 5 mM GSH
# [9] = Homo sapiens, HCT-116, 48 h, w/o GSH, read-out: IC50 HCT-116 w/o GSH
# [10] = read-out: IC50 HT-29 5 mM GSH, 48 h, prepared in DMA, 5 mM GSH
# [11] = read-out: IC50 HT-29 w/o GSH, 48 h, prepared in DMA, w/o GSH
# [12] = 72 h, prepared in DMA, w/o GSH, read-out: IC50 HCT-116 w/o GSH
# [13] = read-out: IC50 HCT-116 5 mM GSH, 72 h, prepared in DMA, 5 mM GSH
# [14] = Homo sapiens, HT-29, 48 h, read-out: IC50 HT-29
# [15] = Homo sapiens, HCT-116, read-out: IC50 HCT-116 5 mM GSH, 72 h, prepared in DMA, 5 mM GSH
# [16] = Homo sapiens, HCT-116, 48 h, prepared in DMSO, read-out: IC50 HCT-116
# [17] = Homo sapiens, HCT-116, 72 h, prepared in DMA, w/o GSH, read-out: IC50 HCT-116 w/o GSH
# [18] = read-out: IC50 HT-29, 48 h, prepared in DMSO
smiles,measurement,setting,value
"O=C(CCCCCN1C(=O)CC(SCCOCCOCCOc2cc(O)c(C(=O)CCc3ccc(O)cc3)c(O[C@@H]3O[C@H](CO)[C@@H](O)C(O)[C@H]3O)c2)C1=O)OCn1cc(F)c(=O)[nH]c1=O (stereo partly drawn) [Compound 4, (5-Fluoro-2,4-dioxo-3,4-dihydropyrimidin-1(2H)-yl)methyl 6-(3-((2-(2-(2-(3-hydroxy-4-(3-(4-hydroxyphenyl)propanoyl)-5-(((2S,3R,5S,6R)-3,4,5-trihydroxy-6-(hydroxymethyl)tetrahydro-2H-pyran-2-yl)oxy)phenoxy)ethoxy)ethoxy)ethyl)thio)-2,5-dioxopyrrolidin-1-yl)hexanoate]",IC50,HT-29; [6],93.6 ± 9.4 µM
same,IC50,HT-29; [7],> 100 µM
same,"cytotoxicity against CRC cell lines, in words",[1],poorly cytotoxic
same,IC50,HCT-116; [8],> 100 µM
same,IC50,HCT-116; [9],97.4 ± 20.3 µM
"CCc1c2c(nc3ccc(OC(=O)OCCSSCCOCCOCCOc4ccc(O)c(C(=O)CCc5ccc(O)cc5)c4O[C@@H]4O[C@H](CO)[C@@H](O)[C@H](O)[C@H]4O)cc13)-c1cc3c(c(=O)n1C2)COC(=O)[C@]3(O)CC [Compound 30, (S)-4,11-diethyl-4-hydroxy-3,14-dioxo-3,4,12,14-tetrahydro-1H-pyrano[3′,4′:6,7]indolizino[1,2-b]quinolin-9-yl(2-((2-(2-(2-(4-hydroxy-3-(3-(4-hydroxyphenyl)propanoyl)-2-(((2S,3R,4S,5S,6R)-3,4,5-trihydroxy-6-(hydroxymethyl)tetrahydro-2H)pyran-2-yl)oxy)phenoxy)ethoxy)ethoxy)ethyl)disulfanyl)ethyl) carbonate]",IC50,HT-29; [10],0.0301 ± 0.0026 µM
same,IC50,HT-29; [11],0.0396 ± 0.00345 µM
same,release rate of SN-38,[2]; 5 mM GSH,about 60%
same,half-life in human plasma,[3],20 min
same,"cytotoxicity against CRC cell lines, in words",[1],less or similar cytotoxicity
same,IC50,HCT-116; [12],0.00244 ± 0.00017 µM
same,IC50,HCT-116; [13],0.00257 ± 0.00013 µM
"O=C(CCc1ccc(O)cc1)c1c(O)cc(OCCOCCOCCS)cc1O [Compound 17, 1-(2,6-Dihydroxy-4-(2-(2-(2-mercaptoethoxy)ethoxy)ethoxy)phenyl)-3-(4-hydroxyphenyl)propan-1-one]",IC50,HT-29; [14],29.1 ± 6.14 µM
same,IC50,HT-29; [6],24.2 ± 0.4 µM
same,IC50,HT-29; [7],29.1 ± 6.14 µM
same,IC50,"[1]; Homo sapiens, HCT-116 and HT-29, over Tables 1 to 3",15 to 30 µM
same,IC50,HCT-116; [8],15.9 ± 0.89 µM
same,IC50,HCT-116; [15],15.9 ± 0.89 µM
same,IC50,HCT-116; [16],15.5 ± 0.72 µM
same,IC50,HCT-116; [9],15.5 ± 0.72 µM
same,IC50,HCT-116; [17],15.5 ± 0.72 µM
"O=C(CCc1cn(CCOCCOCCOc2cc(O)c(C(=O)CCc3ccc(O)cc3)c(O[C@@H]3O[C@H](CO)[C@@H](O)C(O)[C@H]3O)c2)nn1)OCn1cc(F)c(=O)[nH]c1=O (stereo partly drawn) [Compound 8, (5-Fluoro-2,4-dioxo-3,4-dihydropyrimidin-1(2H)-yl)methyl 3-(1-(2-(2-(2-(3-hydroxy-4-(3-(4-hydroxyphenyl)propanoyl)-5-(((2S,3R,5S,6R)-3,4,5-trihydroxy-6-(hydroxymethyl)tetrahydro-2H-pyran-2-yl)oxy)phenoxy)ethoxy)ethoxy)ethyl)-1H-1,2,3-triazol-4-yl)propanoate]",IC50,HT-29; [7],> 100 µM
same,"cytotoxicity against CRC cell lines, in words",[1],poorly cytotoxic
same,IC50,HCT-116; [9],> 100 µM
"O=C(CCCCCN1C(=O)CC(SCCOCCOCCOc2cc(O)c(C(=O)CCc3ccc(O)cc3)c(O)c2)C1=O)OCn1cc(F)c(=O)[nH]c1=O (centres unmarked) [Compound 5, (5-Fluoro-2,4-dioxo-3,4-dihydropyrimidin-1(2H)-yl)methyl 6-(3-((2-(2-(2-(3,5-dihydroxy-4-(3-(4-hydroxyphenyl)propanoyl)phenoxy)ethoxy)ethoxy)ethyl)thio)-2,5-dioxopyrrolidin-1-yl)hexanoate]",IC50,HT-29; [6],86.9 ± 2.9 µM
same,IC50,HT-29; [7],43.7 ± 5 µM
same,"release of 5-FU, in words","[2]; 5 mM GSH, after 48 h",Little 5-FU was released
same,half-life in human plasma,[3],48 min
same,"cytotoxicity against CRC cell lines, in words",[1],poorly cytotoxic
same,IC50,HCT-116; [8],82.8 ± 4.18 µM
same,IC50,HCT-116; [9],75 ± 13.7 µM
"O=C(CCc1ccc(O)cc1)c1c(O)cc(O)cc1O[C@@H]1O[C@H](CO)[C@@H](O)[C@H](O)[C@H]1O [Phlorizin (2), phlorizin, reference compound]",IC50,HT-29; [14],> 100 µM
same,IC50,HT-29; [6],> 100 µM
same,IC50,HT-29; [7],> 100 µM
same,IC50,HCT-116; [15],> 100 µM
same,IC50,HCT-116; [16],> 100 µM
same,IC50,HCT-116; [17],> 100 µM
"CCc1c2c(nc3ccc(O)cc13)-c1cc3c(c(=O)n1C2)COC(=O)[C@]3(O)CC [SN-38 (28), SN-38, reference compound]",IC50,HT-29; [10],0.0113 ± 0.00073 µM
same,IC50,HT-29; [18],0.43 ± 1e-05 µM
same,IC50,HT-29; [11],0.0134 ± 0.0004 µM
same,IC50,"[1]; HCT-116 and HT-29, Tables 2 and 3",0.002 to 0.43 µM
same,IC50,"HCT-116; 48 h, prepared in DMSO, read-out: IC50 HCT-116",0.0549 ± 0.00386 µM
same,IC50,HCT-116; [12],0.00237 ± 4e-05 µM
same,IC50,HCT-116; [13],0.00288 ± 8e-05 µM
"O=C(CCc1ccc(O)cc1)c1c(O)cc(O)cc1O [Phloretin (3), phloretin, reference compound]",IC50,HT-29; [14],> 100 µM
same,IC50,HT-29; [6],> 100 µM
same,IC50,HT-29; [7],> 100 µM
same,IC50,HCT-116; [15],77.6 ± 3.42 µM
same,IC50,HCT-116; [16],> 100 µM
same,IC50,HCT-116; [17],> 100 µM
"O=C(CCCSSCCOCCOCCOc1cc(O)c(C(=O)CCc2ccc(O)cc2)c(O[C@@H]2O[C@H](CO)[C@@H](O)C(O)[C@H]2O)c1)OCn1cc(F)c(=O)[nH]c1=O (stereo partly drawn) [Compound 6, (5-fluoro-2,4-dioxo-3,4-dihydropyrimidin-1(2H)-yl)methyl 4-((2-(2-(2-(3-hydroxy-4-(3-(4-hydroxyphenyl)propanoyl)-5-(((2S,3R,5S,6R)-3,4,5-trihydroxy-6-(hydroxymethyl)tetrahydro-2H-pyran-2-yl)oxy)phenoxy)ethoxy)ethoxy)ethyl)disulfanyl)butanoate]",IC50,HT-29; [6],8 ± 0.52 µM
same,IC50,HT-29; [7],59.8 ± 7.93 µM
same,half-life at 2.5 mM,"[2]; PBS containing GSH, pH 7.4, highly reductive environments, read-out: half-lives in highly reductive environments",< 300 min
same,IC50,HCT-116; [8],23.8 µM
same,IC50,HCT-116; [9],54.9 µM
CCc1c2c(nc3ccc(OCc4ccc(NC(=O)[C@H](CCCNC(N)=O)NC(=O)[C@@H](NC(=O)CCCCN5C(=O)CC(SCCOCCOCCOc6cc(O)c(C(=O)CCc7ccc(O)cc7)c(O)c6)C5=O)C(C)C)cc4)cc13)-c1cc3c(c(=O)n1C2)COC(=O)[C@]3(O)CC (some centres unmarked) [Compound 38],"body weight change, in words",[4],did not decrease the body weight; also recorded: no significant change in the body weight
same,"cytotoxicity in HT-29 cell line, in words",HT-29,less sensitive
same,IC50,HT-29; [18],> 100 µM
same,"anti-tumor efficacy (tumor area), in words",[5],good therapeutic efficacy than irinotecan; also recorded: better anti-tumor efficacy than irinotecan

# Source: patent publication US12458702B2 (NATIONAL TAIWAN UNIVERSITY, priority 2022, dated 2025)
